Results from patent US20120270237A9, “METHODS FOR THE IDENTIFICATION OF KINASE INTERACTING MOLECULES AND FOR THE PURIFICATION OF KINASE PROTEINS” (Cellzone AG, priority 2009, published 2012).

Tests used:
Assay in all cases: Kinobeads competition binding, HL60 cell lysate
Conditions in all cases: 10 μM free compound
RET = biological target: T1, RET (Homo sapiens, UniProt P07949)
T1 construct: endogenous in cells; host or cells: HL60 cells
Description: (§1) To one aliquot of cell lysate 10 μM of the free compound (FIG. 3, CZC31326) was added and allowed to bind to proteins in the lysate. Then the affinity matrix with the immobilized compound (Example 1) was added to capture proteins that were not interacting with the previously added free compound. Beads were separated from the lysate and bead bound proteins were eluted in SDS sample buffer and subsequently separated by SDS-Polyacrylamide gel electrophoresis (FIG. 4). Suitable gel bands were cut out and subjected to in-gel proteolytic digestion with trypsin. The second lysate aliquot was processed identically, however no free compound was added (DMSO solvent control). Peptides originating from samples 1 and 2 were labeled with iTRAQ reagents (iTRAQ 114 and iTRAQ 117) and the combined samples were analyzed with a nano-flow liquid chromatography system coupled online to a tandem mass spectrometer (LC-MS/MS) experiment followed by iTRAQ reporter ion quantification in the MS/MS spectra (Ross et al., 2004. Mol. Cell. Proteomics 3(12):1154-1169). Further experimental protocols can be found in WO2006/134056 and a previous publication (Bantscheff et al., 2007. Nature Biotechnology 25, 1035-1044). Sepharose-beads with the immobilized compound (100 μl beads per pull-down experiment) were equilibrated in lysis buffer and incubated with a cell lysate sample containing 50 mg of protein on an end-over-end shaker (Roto Shake Genie, Scientific Industries Inc.) for 2 hours at 4° C. Beads were collected, transferred to Mobicol-columns (MoBiTech 10055) and washed with 10 ml lysis buffer containing 0.4% NP40 detergent, followed by 5 ml lysis buffer containing 0.2% detergent. To elute bound proteins, 60 μl 2×SDS sample buffer was added to the column. The column was incubated for 30 minutes at 50° C. and the eluate was transferred to a siliconized microfuge tube by centrifugation. Proteins were then alkylated with 108 mM iodoacetamid. Proteins were then separated by SDS-Polyacrylamide electrophoresis (SDS-PAGE). The peptide extracts of samples treated with 10 μM of free compound (CZC31326) and the solvent control (0.5% DMSO) were treated with different variants of the isobaric tagging reagent (iTRAQ Reagents Multiplex Kit, part number 4352135, Applied Biosystems, Foster City, Calif., USA). The iTRAQ reagents are a set of multiplexed, amine-specific, stable isotope reagents that can label peptides on amino groups in up to four different biological samples enabling simultaneous identification and quantitation of peptides. The iTRAQ reagents were used according to instructions provided by the manufacturer. The samples were resuspended in 10 μl 50 mM TEAB solution, pH 8.5 and 10 μl ethanol were added. The iTRAQ reagent was dissolved in 120 μl ethanol and 10 μl of reagent solution were added to the sample. The labeling reaction was performed at room temperature for one hour on a horizontal shaker and stopped by adding 5 μl of 100 mM TEAB and 100 mM glycine in water. The two labeled sampled were then combined, dried in a vacuum centrifuge and resuspended in 10 μl of 0.1% formic acid in water. Relative protein quantitation was performed using peak areas of iTRAQ reporter ion signals essentially as described in an earlier publication (Bantscheff et al., 2007. Nature Biotechnology 25, 1035-1044).

DYRKIA = biological target: T2, DYRKIA (Homo sapiens, UniProt Q13627)
T2 construct: endogenous in cells; host or cells: HL60 (DSMZ ACC3)
Description: as §1

GAK = biological target: T3, GAK (Homo sapiens, UniProt O14976)
T3 sequence (O14976 1-1311): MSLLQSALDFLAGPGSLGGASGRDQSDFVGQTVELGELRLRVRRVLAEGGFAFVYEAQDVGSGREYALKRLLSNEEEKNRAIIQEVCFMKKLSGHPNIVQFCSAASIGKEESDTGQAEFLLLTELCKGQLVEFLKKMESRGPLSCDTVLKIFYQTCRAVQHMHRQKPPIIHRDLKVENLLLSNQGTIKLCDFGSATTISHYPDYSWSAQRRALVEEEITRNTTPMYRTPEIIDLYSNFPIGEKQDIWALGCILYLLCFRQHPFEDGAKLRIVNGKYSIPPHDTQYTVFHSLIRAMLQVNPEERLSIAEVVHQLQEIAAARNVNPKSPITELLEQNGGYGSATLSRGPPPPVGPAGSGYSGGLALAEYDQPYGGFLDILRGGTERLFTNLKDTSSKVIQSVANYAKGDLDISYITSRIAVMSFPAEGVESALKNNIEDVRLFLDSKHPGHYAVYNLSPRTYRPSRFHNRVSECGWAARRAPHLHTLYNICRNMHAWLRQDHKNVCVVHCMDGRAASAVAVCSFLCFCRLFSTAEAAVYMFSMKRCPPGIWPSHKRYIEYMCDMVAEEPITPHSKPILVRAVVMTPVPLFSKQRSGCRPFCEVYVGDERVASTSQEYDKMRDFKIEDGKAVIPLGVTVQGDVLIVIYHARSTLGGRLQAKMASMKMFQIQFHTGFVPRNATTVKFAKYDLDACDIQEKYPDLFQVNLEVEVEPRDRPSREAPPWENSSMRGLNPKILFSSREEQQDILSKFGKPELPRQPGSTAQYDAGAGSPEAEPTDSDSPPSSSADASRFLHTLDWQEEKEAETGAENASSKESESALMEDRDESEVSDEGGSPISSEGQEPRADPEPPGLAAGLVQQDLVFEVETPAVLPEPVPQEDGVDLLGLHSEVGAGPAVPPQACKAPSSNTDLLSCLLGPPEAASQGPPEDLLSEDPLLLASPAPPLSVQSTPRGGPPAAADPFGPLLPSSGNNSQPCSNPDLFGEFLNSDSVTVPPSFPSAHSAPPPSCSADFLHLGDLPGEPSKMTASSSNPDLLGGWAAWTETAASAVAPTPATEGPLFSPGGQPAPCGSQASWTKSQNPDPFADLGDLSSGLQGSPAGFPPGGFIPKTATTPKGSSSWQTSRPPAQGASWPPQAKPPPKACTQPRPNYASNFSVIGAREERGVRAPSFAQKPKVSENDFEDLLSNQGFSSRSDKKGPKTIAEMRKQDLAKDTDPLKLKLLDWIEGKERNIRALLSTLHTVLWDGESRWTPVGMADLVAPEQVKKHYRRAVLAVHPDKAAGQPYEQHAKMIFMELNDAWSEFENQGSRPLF
Description: as §1

ACK = biological target: T4, ACK (Homo sapiens, UniProt Q07912)
T4 construct: endogenous in cells; host or cells: HL60 cells
Description: as §1

PKCb = biological target: T5, PKCb (Homo sapiens, UniProt P05771)
T5 construct: endogenous in cells; host or cells: HL60
Description: as §1

CSK = biological target: T6, CSK (Homo sapiens, UniProt P41240)
T6 construct: endogenous in cells; host or cells: HL60 (DSMZ ACC3)
Description: as §1

HIPK1 = biological target: T7, HIPK1 (Homo sapiens, UniProt Q86Z02)
T7 construct: endogenous in cells; host or cells: HL60
Description: as §1

T6 sequence (P41240 whole entry): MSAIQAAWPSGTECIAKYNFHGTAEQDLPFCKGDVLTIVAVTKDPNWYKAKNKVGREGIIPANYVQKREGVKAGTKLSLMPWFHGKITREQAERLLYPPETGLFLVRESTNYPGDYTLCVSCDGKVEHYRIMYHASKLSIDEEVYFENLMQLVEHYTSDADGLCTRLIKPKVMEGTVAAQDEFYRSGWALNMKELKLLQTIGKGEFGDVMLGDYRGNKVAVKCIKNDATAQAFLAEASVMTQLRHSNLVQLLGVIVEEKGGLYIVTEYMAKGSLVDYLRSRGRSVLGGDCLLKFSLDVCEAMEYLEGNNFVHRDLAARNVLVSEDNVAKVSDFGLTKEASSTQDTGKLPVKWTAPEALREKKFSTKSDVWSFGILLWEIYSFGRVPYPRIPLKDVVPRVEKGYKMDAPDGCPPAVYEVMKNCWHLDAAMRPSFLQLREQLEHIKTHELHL
T7 sequence (Q86Z02 whole entry): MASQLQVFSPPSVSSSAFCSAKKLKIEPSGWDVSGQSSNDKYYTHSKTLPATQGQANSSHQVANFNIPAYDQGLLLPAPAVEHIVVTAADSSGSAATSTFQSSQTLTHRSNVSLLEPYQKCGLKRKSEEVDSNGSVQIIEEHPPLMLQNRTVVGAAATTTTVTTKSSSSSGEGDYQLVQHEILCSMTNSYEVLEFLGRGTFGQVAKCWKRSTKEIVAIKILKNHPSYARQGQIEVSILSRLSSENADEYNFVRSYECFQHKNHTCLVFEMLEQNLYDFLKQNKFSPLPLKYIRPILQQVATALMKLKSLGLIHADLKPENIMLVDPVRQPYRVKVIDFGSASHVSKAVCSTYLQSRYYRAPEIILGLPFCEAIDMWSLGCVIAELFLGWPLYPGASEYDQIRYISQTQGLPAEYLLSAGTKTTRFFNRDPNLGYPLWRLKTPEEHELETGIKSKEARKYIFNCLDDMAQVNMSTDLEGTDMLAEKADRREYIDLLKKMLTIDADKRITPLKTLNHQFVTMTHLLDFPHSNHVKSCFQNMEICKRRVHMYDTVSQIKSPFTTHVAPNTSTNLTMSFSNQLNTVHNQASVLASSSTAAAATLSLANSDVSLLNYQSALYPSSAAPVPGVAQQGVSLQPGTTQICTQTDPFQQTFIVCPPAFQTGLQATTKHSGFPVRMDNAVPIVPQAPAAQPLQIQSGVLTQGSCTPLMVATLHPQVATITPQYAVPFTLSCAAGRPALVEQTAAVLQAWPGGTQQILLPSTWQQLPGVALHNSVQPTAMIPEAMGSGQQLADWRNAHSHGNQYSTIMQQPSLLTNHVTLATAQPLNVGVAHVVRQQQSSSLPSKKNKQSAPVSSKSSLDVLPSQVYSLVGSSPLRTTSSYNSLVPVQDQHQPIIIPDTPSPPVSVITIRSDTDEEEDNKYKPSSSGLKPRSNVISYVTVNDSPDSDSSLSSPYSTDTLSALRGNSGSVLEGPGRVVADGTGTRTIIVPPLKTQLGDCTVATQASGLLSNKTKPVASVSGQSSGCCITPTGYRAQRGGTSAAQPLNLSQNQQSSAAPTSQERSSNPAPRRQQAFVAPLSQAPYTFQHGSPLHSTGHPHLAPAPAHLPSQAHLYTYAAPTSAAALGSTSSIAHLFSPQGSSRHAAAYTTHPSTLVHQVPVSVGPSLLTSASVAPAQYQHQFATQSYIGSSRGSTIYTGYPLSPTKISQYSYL
T4 sequence (Q07912 whole entry): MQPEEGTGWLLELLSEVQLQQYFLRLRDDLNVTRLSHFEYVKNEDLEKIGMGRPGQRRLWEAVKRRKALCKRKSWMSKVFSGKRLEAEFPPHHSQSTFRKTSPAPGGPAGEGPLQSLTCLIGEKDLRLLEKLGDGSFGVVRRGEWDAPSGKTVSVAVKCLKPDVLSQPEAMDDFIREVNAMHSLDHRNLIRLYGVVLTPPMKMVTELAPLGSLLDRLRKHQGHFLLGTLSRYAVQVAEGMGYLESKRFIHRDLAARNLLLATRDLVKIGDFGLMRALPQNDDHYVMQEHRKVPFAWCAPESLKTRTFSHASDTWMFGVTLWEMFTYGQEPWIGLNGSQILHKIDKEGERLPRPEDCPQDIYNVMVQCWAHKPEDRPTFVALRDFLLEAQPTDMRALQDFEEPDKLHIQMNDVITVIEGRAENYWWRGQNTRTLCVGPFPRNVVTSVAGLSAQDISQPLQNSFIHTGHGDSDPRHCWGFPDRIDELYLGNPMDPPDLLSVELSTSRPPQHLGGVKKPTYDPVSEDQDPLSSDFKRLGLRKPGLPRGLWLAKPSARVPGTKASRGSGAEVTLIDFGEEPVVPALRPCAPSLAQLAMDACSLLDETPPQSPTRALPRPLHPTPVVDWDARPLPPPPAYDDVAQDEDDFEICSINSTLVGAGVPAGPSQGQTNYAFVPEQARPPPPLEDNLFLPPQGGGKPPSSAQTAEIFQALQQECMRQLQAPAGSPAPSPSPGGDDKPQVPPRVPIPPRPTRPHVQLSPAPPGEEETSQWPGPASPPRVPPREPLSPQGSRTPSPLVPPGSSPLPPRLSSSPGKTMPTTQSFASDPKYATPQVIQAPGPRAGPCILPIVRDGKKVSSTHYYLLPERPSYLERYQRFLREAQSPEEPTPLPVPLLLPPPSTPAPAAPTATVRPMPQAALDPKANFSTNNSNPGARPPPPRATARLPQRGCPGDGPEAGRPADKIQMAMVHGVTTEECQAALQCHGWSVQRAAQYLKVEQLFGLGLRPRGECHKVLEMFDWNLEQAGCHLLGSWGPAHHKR
T5 sequence (P05771 whole entry): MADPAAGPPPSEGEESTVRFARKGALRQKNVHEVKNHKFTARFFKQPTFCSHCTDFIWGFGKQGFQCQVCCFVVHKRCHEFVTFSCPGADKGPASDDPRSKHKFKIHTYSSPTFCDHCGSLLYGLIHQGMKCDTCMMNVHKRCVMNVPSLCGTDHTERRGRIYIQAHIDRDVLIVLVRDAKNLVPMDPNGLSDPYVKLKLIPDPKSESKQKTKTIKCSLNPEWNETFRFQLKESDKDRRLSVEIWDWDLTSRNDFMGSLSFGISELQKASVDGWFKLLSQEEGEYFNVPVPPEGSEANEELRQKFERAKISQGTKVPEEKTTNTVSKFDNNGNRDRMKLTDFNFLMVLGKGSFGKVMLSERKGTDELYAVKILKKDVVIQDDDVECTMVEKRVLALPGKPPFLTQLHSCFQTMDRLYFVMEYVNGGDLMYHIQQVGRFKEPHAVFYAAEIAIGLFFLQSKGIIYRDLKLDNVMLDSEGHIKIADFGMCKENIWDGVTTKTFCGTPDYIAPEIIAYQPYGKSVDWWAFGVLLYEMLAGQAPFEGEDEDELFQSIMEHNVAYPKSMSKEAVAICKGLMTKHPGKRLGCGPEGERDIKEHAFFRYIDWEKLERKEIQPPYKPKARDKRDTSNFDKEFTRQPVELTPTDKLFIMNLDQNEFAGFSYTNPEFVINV
T1 sequence (P07949 29-1114): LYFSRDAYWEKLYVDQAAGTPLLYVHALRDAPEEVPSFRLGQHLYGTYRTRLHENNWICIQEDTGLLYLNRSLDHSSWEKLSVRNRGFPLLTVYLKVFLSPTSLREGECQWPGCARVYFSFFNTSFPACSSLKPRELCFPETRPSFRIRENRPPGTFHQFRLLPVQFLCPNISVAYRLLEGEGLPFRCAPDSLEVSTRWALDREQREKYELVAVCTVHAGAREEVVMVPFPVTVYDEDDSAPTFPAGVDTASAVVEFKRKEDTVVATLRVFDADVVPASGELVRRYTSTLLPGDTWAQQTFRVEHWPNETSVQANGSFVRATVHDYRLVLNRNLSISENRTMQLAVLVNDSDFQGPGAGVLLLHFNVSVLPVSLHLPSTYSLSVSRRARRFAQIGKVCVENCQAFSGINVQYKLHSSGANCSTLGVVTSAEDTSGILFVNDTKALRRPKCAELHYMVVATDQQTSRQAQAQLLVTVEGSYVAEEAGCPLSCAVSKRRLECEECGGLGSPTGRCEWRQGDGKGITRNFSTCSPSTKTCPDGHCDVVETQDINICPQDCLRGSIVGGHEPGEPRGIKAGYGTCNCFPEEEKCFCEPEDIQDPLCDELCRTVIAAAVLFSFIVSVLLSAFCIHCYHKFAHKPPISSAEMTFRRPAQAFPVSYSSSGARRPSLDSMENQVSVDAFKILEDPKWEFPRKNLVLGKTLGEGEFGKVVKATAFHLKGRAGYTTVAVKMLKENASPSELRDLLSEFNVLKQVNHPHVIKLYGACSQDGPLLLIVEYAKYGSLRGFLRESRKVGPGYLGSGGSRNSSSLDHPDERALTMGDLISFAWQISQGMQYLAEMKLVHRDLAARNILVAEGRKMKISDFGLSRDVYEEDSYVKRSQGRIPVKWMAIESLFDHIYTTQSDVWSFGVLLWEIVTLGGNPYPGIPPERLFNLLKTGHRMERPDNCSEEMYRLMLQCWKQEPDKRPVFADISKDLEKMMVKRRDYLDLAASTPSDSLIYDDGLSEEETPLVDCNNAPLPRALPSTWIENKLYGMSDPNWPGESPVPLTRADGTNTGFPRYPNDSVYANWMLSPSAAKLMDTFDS

CS(=O)(=O)Nc1ccccc1Nc1nc(Nc2cccc(OCCN)c2)ncc1Cl [CZC31326, N-(2-(2-(3-(2-aminoethoxy)phenylamino)-5-chloropyrimidin-4-ylamino)phenyl)methanesulfonamide] was tested, and the inhibition at 10 µM (RET) was 97.1%, the inhibition at 10 µM (DYRKIA) was 96.1% and the inhibition at 10 µM (GAK) was 97.9%. It also gave an inhibition at 10 µM (ACK) of 93.6%, an inhibition at 10 µM (PKCb) of 97.3% and a Competition % (CSK) of 80.3%. The inhibition at 10 µM (HIPK1) was 97.1%.
